# Experiments:
# recombinant PRL-2 = molecular target: T1, recombinant PRL-2 (Homo sapiens, UniProt Q12974); test: In vitro phosphatase assay (DiFMUP hydrolysis), PRL-2; type: biochemical; conditions: for IC50: 2.5 µM protein, DiFMUP at KM, read-out: Calculated IC50, PRL-2 phosphatase activity; for % Phosphatase Activity (compared to DMSO) PRL-2: FDA-approved drug screen;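 on all read-outs here: PRL-2 activity read as DiFMUP hydrolysis after 20 min at room temperature with drug, enzyme first pre-reduced at 4 °C for 20 min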
# T1 construct: 6xHis (N, cleaved yes); made in house; host or cells: E. coli One Shot BL21 Star
# T1 sequence (Q12974 1-167): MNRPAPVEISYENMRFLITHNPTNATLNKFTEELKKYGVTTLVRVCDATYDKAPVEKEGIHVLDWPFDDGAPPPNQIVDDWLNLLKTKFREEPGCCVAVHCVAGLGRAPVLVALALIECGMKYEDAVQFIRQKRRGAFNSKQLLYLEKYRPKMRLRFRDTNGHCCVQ
# recombinant PRL-3 = molecular target: T2, recombinant PRL-3 (Homo sapiens, UniProt O75365); test: In vitro phosphatase assay (DiFMUP hydrolysis), PRL-3; type: biochemical; conditions: for IC50: 2.5 µM protein, DiFMUP at KM, read-out: Calculated IC50, PRL-3 phosphatase activity; for % Phosphatase Activity (compared to DMSO) PRL-3: FDA-approved drug screen
# T2 construct: 6xHis (N, cleaved yes); made in house; host or cells: E. coli One Shot BL21 Star
# HEK293T cells [1] = test: MTT viability assay; type: cell-based, human; conditions: drug doses 1 to 100 µM, 16 h, normalized to 1% DMSO
# Protocol: Cells were seeded into duplicate wells of a 96 well plate at a density of 2 × 10^4 cells per well and allowed to recover for 24 h. Cells were then treated with drug or DMSO at the indicated concentrations for 16 h. Following drug treatment, 10 μL of 5 mg/ml MTT (Sigma, M5655) was added to each well and cells were incubated for 4 h. Finally, media were removed, and the dye was solubilized in 100 μL of 0.1 M HCl in isopropanol. Absorbance was measured at 570 nm and 690 nm with final absorbance measurements as 570–690 nm.
# recombinant PRL-1 = molecular target: T3, recombinant PRL-1 (Homo sapiens, UniProt Q93096); test: In vitro phosphatase assay (DiFMUP hydrolysis), PRL-1; type: biochemical; conditions: for IC50: 2.5 µM protein, DiFMUP at KM, read-out: Calculated IC50, PRL-1 phosphatase activity; for % Phosphatase Activity (compared to DMSO) PRL-1: FDA-approved drug screen
# T3 construct: 6xHis (N, cleaved yes); made in house; host or cells: E. coli One Shot BL21 Star
# T3 sequence (Q93096 1-173): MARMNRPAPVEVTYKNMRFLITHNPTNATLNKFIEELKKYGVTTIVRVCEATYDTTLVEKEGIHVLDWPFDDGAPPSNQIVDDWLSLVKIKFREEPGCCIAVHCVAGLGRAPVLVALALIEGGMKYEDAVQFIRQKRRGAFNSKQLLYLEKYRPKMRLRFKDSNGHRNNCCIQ
# HEK293T cells [2] = test: Scratch (migration) assay, HEK293T transfected with PRL-3 or empty vector; type: cell-based, human; conditions: HEK293T transfected with PRL-3, 24 h, compared to DMSO
# Protocol: pENTR-PRL-3 (previously described[51]) was cloned into pLKO-CMV-puro using LR clonase (Thermofisher, 11,791,019) according to manufacturer’s directions. pLKO-CMV empty vector (EV) and pLKO-CMV:PRL-3 were transfected into HEK293T using Lipofectamine 3000 (ThermoFisher, L3000015) according to manufacturer’s protocol. Transfected cells were selected with 1 µg/mL puromycin in complete media to establish the cell line, then were maintained under 0.5 µg/mL puromycin in complete media. For PRL-3 knockdown, pLKO.1-scrambled shRNA and pLKO.1-PRL-3 shRNA[51] plasmids were transfected into HCT116 cells using Lipofectamine 3000 (Thermo Fisher, Cat # L3000015) according to the manufacturer’s directions. Cells were selected for 48 h in 1 µg/mL puromycin before use in assays.
# Cells were seeded into duplicate wells of a 48 well plates at a density of 2 × 10^5 cells per well for HEK293T or 4 × 10^5 for HCT116 and SW480. Cells were recovered overnight and were scratched using a p20 pipette tip the following day. Compounds were added at the concentrations indicated. Images were obtained immediately after the scratch and after a 24 h incubation with the drug on an Evos FL inverted microscope (ThermoFisher). The area within the scratch was calculated using ImageJ. The area migrated was measured as the difference in wound area at 0 h and 24 h and the percent change in migration was calculated by dividing the difference in wound area of treatment by the difference in wound area of the control.
# T2 sequence (O75365 whole entry): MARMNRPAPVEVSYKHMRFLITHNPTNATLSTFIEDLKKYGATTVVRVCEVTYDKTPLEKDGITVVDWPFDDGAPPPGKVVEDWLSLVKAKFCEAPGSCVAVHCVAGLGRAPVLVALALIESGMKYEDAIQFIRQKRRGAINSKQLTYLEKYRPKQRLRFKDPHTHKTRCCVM
compound,measurement,setting,value
"Cc1cc(C(C#N)c2ccc(Cl)cc2)c(Cl)cc1NC(=O)c1cc(I)cc(I)c1O (stereo not shown) [Closantel, reference compound]",IC50,recombinant PRL-2,14 ± 5 µM
same,% Phosphatase Activity (compared to DMSO) PRL-2,recombinant PRL-2; compared to DMSO,17%
same,IC50,recombinant PRL-3,11 ± 0.5 µM
same,% Phosphatase Activity (compared to DMSO) PRL-3,recombinant PRL-3; compared to DMSO,40%
same,viability (MTT),HEK293T cells [1],increased MTT absorbance
same,IC50,recombinant PRL-1,17 ± 3 µM
same,% Phosphatase Activity (compared to DMSO) PRL-1,recombinant PRL-1; compared to DMSO,16%
"COc1cc(C(=O)O)ccc1NC(=O)[C@@H]1N[C@@H](CC(C)(C)C)[C@](C#N)(c2ccc(Cl)cc2F)[C@H]1c1cccc(Cl)c1F [Idasanutlin, reference compound]",IC50,recombinant PRL-2,16 ± 2 µM
same,IC50,recombinant PRL-3,13 ± 0.4 µM
same,viability (MTT),HEK293T cells [1],decreased viability
same,cellular migration in PRL-3 overexpressing cells,HEK293T cells [2],less significant effects on the migration of PRL-3 expressing cells
same,IC50,recombinant PRL-1,20 ± 3 µM
"CC(=O)c1cc2c(o1)C(=O)c1ccccc1C2=O [Napabucasin, reference compound]",IC50,recombinant PRL-2,1.1 ± 0.3 µM
same,% Phosphatase Activity (compared to DMSO) PRL-2,recombinant PRL-2; compared to DMSO,26%
same,IC50,recombinant PRL-3,0.7 ± 0.1 µM
same,% Phosphatase Activity (compared to DMSO) PRL-3,recombinant PRL-3; compared to DMSO,10%
same,viability (MTT),HEK293T cells [1],decreased viability
same,cellular migration in PRL-3 overexpressing cells,HEK293T cells [2],less significant effects on the migration of PRL-3 expressing cells
same,IC50,recombinant PRL-1,0.4 ± 0.2 µM
same,% Phosphatase Activity (compared to DMSO) PRL-1,recombinant PRL-1; compared to DMSO,16%
"COCCn1c2c([n+](Cc3cnccn3)c1C)C(=O)c1ccccc1C2=O [YM155, reference compound]",IC50,recombinant PRL-2,0.7 ± 0.1 µM
same,IC50,recombinant PRL-3,0.3 ± 0.1 µM
same,viability (MTT),HEK293T cells [1],decreased viability
same,cellular migration in PRL-3 overexpressing cells,HEK293T cells [2],less significant effects on the migration of PRL-3 expressing cells
same,IC50,recombinant PRL-1,0.3 ± 0.1 µM
CC(C(=O)O)c1ccc2c(c1)CC(=O)c1ccccc1S2 (stereo not shown) [Zaltoprofen],% Phosphatase Activity (compared to DMSO) PRL-2,recombinant PRL-2; activity compared to DMSO,113%
same,% Phosphatase Activity (compared to DMSO) PRL-3,recombinant PRL-3; activity compared to DMSO,86%
same,% Phosphatase Activity (compared to DMSO) PRL-1,recombinant PRL-1; activity compared to DMSO,109%
CC(=O)N[C@H]1[C@H]([C@H](O)[C@H](O)CO)OC(C(=O)O)=C[C@@H]1N=C(N)N [Zanamivir],% Phosphatase Activity (compared to DMSO) PRL-2,recombinant PRL-2; activity compared to DMSO,98%
same,% Phosphatase Activity (compared to DMSO) PRL-3,recombinant PRL-3; activity compared to DMSO,115%
same,% Phosphatase Activity (compared to DMSO) PRL-1,recombinant PRL-1; activity compared to DMSO,90%
COc1nc(C)cnc1NS(=O)(=O)c1cccnc1-c1ccc(-c2nnco2)cc1 [Zibotentan (ZD4054)],% Phosphatase Activity (compared to DMSO) PRL-2,recombinant PRL-2; activity compared to DMSO,97%
same,% Phosphatase Activity (compared to DMSO) PRL-3,recombinant PRL-3; activity compared to DMSO,94%
same,% Phosphatase Activity (compared to DMSO) PRL-1,recombinant PRL-1; activity compared to DMSO,99%
Cc1cn([C@H]2C[C@H](N=[N+]=[N-])[C@@H](CO)O2)c(=O)[nH]c1=O [Zidovudine],% Phosphatase Activity (compared to DMSO) PRL-2,recombinant PRL-2; activity compared to DMSO,112%
same,% Phosphatase Activity (compared to DMSO) PRL-3,recombinant PRL-3; activity compared to DMSO,85%
same,% Phosphatase Activity (compared to DMSO) PRL-1,recombinant PRL-1; activity compared to DMSO,100%
CC(c1cc2ccccc2s1)N(O)C(N)=O (stereo not shown) [Zileuton],% Phosphatase Activity (compared to DMSO) PRL-2,recombinant PRL-2; activity compared to DMSO,86%
same,% Phosphatase Activity (compared to DMSO) PRL-3,recombinant PRL-3; activity compared to DMSO,87%
same,% Phosphatase Activity (compared to DMSO) PRL-1,recombinant PRL-1; activity compared to DMSO,96%
Cl.O=C1Cc2cc(CCN3CCN(c4nsc5ccccc45)CC3)c(Cl)cc2N1 [Ziprasidone HCl],% Phosphatase Activity (compared to DMSO) PRL-2,recombinant PRL-2; activity compared to DMSO,91%
same,% Phosphatase Activity (compared to DMSO) PRL-3,recombinant PRL-3; activity compared to DMSO,80%
same,% Phosphatase Activity (compared to DMSO) PRL-1,recombinant PRL-1; activity compared to DMSO,91%
CN(C)CCc1c[nH]c2ccc(C[C@H]3COC(=O)N3)cc12 [Zolmitriptan],% Phosphatase Activity (compared to DMSO) PRL-2,recombinant PRL-2; activity compared to DMSO,86%
same,% Phosphatase Activity (compared to DMSO) PRL-3,recombinant PRL-3; activity compared to DMSO,80%
same,% Phosphatase Activity (compared to DMSO) PRL-1,recombinant PRL-1; activity compared to DMSO,111%
Cc1ccc(-c2nc3ccc(C)cn3c2CC(=O)N(C)C)cc1 [Zolpidem],% Phosphatase Activity (compared to DMSO) PRL-2,recombinant PRL-2; activity compared to DMSO,97%
same,% Phosphatase Activity (compared to DMSO) PRL-3,recombinant PRL-3; activity compared to DMSO,85%
same,% Phosphatase Activity (compared to DMSO) PRL-1,recombinant PRL-1; activity compared to DMSO,98%
NS(=O)(=O)Cc1noc2ccccc12 [Zonisamide],% Phosphatase Activity (compared to DMSO) PRL-2,recombinant PRL-2; activity compared to DMSO,89%
same,% Phosphatase Activity (compared to DMSO) PRL-3,recombinant PRL-3; activity compared to DMSO,78%
same,% Phosphatase Activity (compared to DMSO) PRL-1,recombinant PRL-1; activity compared to DMSO,104%
Cl.Cl.Cl.O[C@@H](COc1cccc2ncccc12)CN1CCN([C@@H]2c3ccccc3[C@@H]3[C@H](c4ccccc42)C3(F)F)CC1 [Zosuquidar (LY335979) 3HCl],% Phosphatase Activity (compared to DMSO) PRL-2,recombinant PRL-2; activity compared to DMSO,98%
same,% Phosphatase Activity (compared to DMSO) PRL-3,recombinant PRL-3; activity compared to DMSO,91%
same,% Phosphatase Activity (compared to DMSO) PRL-1,recombinant PRL-1; activity compared to DMSO,107%
O[C@H]1[C@H](O)[C@@H](O)[C@H](O)[C@@H](O)[C@H]1O [i-Inositol],% Phosphatase Activity (compared to DMSO) PRL-2,recombinant PRL-2; compared to DMSO,112%
same,% Phosphatase Activity (compared to DMSO) PRL-3,recombinant PRL-3; compared to DMSO,87%
same,% Phosphatase Activity (compared to DMSO) PRL-1,recombinant PRL-1; compared to DMSO,94%
NCCCCCC(=O)O [(6-)ε-Aminocaproic acid],% Phosphatase Activity (compared to DMSO) PRL-2,recombinant PRL-2; compared to DMSO,115%
same,% Phosphatase Activity (compared to DMSO) PRL-3,recombinant PRL-3; compared to DMSO,75%
same,% Phosphatase Activity (compared to DMSO) PRL-1,recombinant PRL-1; compared to DMSO,110%
Atosiban Acetate,% Phosphatase Activity (compared to DMSO) PRL-2,recombinant PRL-2; compared to DMSO,80%
same,% Phosphatase Activity (compared to DMSO) PRL-3,recombinant PRL-3; compared to DMSO,90%
same,% Phosphatase Activity (compared to DMSO) PRL-1,recombinant PRL-1; compared to DMSO,86%

# — paper PMC8119466, “A screen of FDA-approved drugs identifies inhibitors of protein tyrosine phosphatase 4A3 (PTP4A3 or PRL-3)” (Scientific Reports, 2021)
